# What was measured:
# Mus musculus [1] = assay: Hypoglycemic activity in C57BL/6J mouse assessed as reduction in postprandial blood glucose level at 1 mg/kg measured after 30 mins by maltose tolerance test; type: functional; conditions: 0.5 h
# Mus musculus [2] = assay: Hypoglycemic activity in C57BL/6J mouse assessed as reduction in postprandial blood glucose level at 0.5 mg/kg measured after 30 mins by maltose tolerance test; type: functional; conditions: 0.5 h
# [3] = Inhibition of Aspergillus niger alpha-glucosidase by Lineweaver-Burk plot analysis
# [4] = Inhibition of rice alpha-glucosidase by Lineweaver-Burk plot analysis; design: species or system Oryza sativa
# Mus musculus [5] = assay: Hypoglycemic activity in C57BL/6J mouse assessed as reduction in postprandial blood glucose level at 1 mg/kg measured after 15 mins by maltose tolerance test; type: functional; conditions: 0.25 h
# Mus musculus [6] = assay: Hypoglycemic activity in C57BL/6J mouse assessed as postprandial blood glucose level at 2 mg/kg measured after 30 mins by maltose tolerance test (reference value: 368.49 +/-31.28 mg/dl); type: functional; conditions: 0.5 h
# Mus musculus [7] = assay: Hypoglycemic activity in C57BL/6J mouse assessed as postprandial blood glucose level at 1 mg/kg measured after 30 mins by maltose tolerance test (reference value: 368.49 +/-31.28 mg/dl); type: functional; conditions: 0.5 h
# Mus musculus [8] = assay: Hypoglycemic activity in C57BL/6J mouse assessed as reduction in postprandial blood glucose level at 0.5 mg/kg measured after 15 mins by maltose tolerance test; type: functional; conditions: 0.25 h
# Mus musculus [9] = assay: Hypoglycemic activity in C57BL/6J mouse assessed as reduction in postprandial blood glucose level at 2 mg/kg measured after 15 mins by maltose tolerance test; type: functional; conditions: 0.25 h
# Mus musculus [10] = assay: Hypoglycemic activity in C57BL/6J mouse assessed as reduction in postprandial blood glucose level at 2 mg/kg measured after 30 mins by maltose tolerance test; type: functional; conditions: 0.5 h
# Mus musculus [11] = assay: Hypoglycemic activity in C57BL/6J mouse assessed as postprandial blood glucose level at 0.5 mg/kg measured after 30 mins by maltose tolerance test (reference value: 368.49 +/-31.28 mg/dl); type: functional
# [12] = Toxicity in C57BL/6J mouse assessed as kidneys pathological morphological changes at 2 mg/kg administered for 7 days by hematoxylin-eosin staining based analysis; type: organism-based; conditions: in vivo, 168 h, time 7 day
# [13] = Toxicity in C57BL/6J mouse assessed as reduction in blood LDL level at 2 mg/kg administered for 7 days; type: organism-based; conditions: in vivo, 168 h, time 7 day
# Oryza sativa = assay: Potency index, ratio of Miglitol Ki to test compound Ki for inhibition of rice alpha-glucosidase measured per DNJ unit
# [14] = Toxicity in C57BL/6J mouse assessed as change in blood cholesterol level at 2 mg/kg administered for 7 days; type: organism-based; conditions: in vivo, 168 h, time 7 day
# [15] = Toxicity in C57BL/6J mouse assessed as change in blood triglyceride level at 2 mg/kg administered for 7 days; type: organism-based; conditions: in vivo, 168 h, time 7 day
# [16] = Hepatotoxicity in C57BL/6J mouse assessed as serum ALT level at 2 mg/kg administered for 7 days (reference value: 70.49 +/-8.78 U/L); type: toxicity, organism-based; conditions: in vivo, 168 h, time 7 day
# Mus musculus [17] = assay: Hypoglycemic activity in C57BL/6J mouse assessed as reduction in postprandial blood glucose level per DNJ nit at 0.5 to 2 mg/kg measured after 15 mins by maltose tolerance test relative to Miglitol; type: functional; conditions: dose 0.5-2 mg/kg, 0.25 h
# [18] = Cytotoxicity against human GES1 cells assessed as cell viability at 125 uM; type: toxicity, cell-based; conditions: read-out: Activity
# [19] = Toxicity in C57BL/6J mouse assessed as lungs pathological morphological changes at 2 mg/kg administered for 7 days by hematoxylin-eosin staining based analysis; type: organism-based; conditions: in vivo, 168 h, time 7 day
# [20] = Toxicity in C57BL/6J mouse assessed as change in CK level at 2 mg/kg administered for 7 days; type: organism-based; conditions: in vivo, 168 h, time 7 day
# [21] = Inhibition of alpha-glucosidase in Kunming mouse using p-nitrophenyl-alpha-glycopyranoside as substrate by Lineweaver-Burk plot analysis
# [22] = Toxicity in C57BL/6J mouse assessed as change in GLU level at 2 mg/kg administered for 7 days; type: organism-based; conditions: in vivo, 168 h, time 7 day
# [23] = Hepatotoxicity in C57BL/6J mouse assessed as serum AST level at 2 mg/kg administered for 7 days (reference value: 221.38 +/-23.03 U/L); type: toxicity, organism-based; conditions: in vivo, 168 h, time 7 day
# [24] = Toxicity in C57BL/6J mouse assessed as change in blood HDL level at 2 mg/kg administered for 7 days; type: organism-based; conditions: in vivo, 168 h, time 7 day
# Alpha-mannosidase = biological target: T1, Alpha-mannosidase (Canavalia ensiformis, UniProt C0HJB3); assay: Inhibition of jack bean alpha-mannosidase
# T1 sequence (C0HJB3 whole entry): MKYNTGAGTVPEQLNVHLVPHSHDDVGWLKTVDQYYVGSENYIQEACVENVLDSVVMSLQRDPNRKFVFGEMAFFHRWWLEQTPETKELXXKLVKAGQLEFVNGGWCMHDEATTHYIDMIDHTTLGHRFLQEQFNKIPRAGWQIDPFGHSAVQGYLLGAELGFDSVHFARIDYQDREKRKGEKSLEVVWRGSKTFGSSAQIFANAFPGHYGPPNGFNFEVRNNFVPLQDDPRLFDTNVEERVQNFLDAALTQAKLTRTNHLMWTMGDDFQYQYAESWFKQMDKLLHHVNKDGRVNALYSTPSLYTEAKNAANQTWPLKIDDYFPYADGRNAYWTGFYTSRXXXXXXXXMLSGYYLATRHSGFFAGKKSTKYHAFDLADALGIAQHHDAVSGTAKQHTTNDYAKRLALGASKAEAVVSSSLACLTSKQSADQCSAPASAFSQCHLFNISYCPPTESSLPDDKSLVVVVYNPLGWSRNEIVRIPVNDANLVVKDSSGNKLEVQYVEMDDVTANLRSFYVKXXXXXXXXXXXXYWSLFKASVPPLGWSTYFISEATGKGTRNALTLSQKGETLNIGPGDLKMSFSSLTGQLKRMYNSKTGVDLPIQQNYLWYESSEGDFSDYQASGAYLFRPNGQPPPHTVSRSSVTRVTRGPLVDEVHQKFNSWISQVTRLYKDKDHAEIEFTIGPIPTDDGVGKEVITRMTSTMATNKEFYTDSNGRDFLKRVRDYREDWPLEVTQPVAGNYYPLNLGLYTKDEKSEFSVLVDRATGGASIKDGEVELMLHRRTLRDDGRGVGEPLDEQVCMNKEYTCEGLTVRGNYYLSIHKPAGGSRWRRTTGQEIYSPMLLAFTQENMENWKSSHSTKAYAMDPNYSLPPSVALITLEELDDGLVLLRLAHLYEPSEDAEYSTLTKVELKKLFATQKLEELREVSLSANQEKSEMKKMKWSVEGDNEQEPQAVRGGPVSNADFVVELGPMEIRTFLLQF
# [25] = Toxicity in C57BL/6J mouse assessed as change in body weight at 2 mg/kg administered for 7 days; type: organism-based; conditions: in vivo, 168 h, time 7 day
# [26] = Toxicity in C57BL/6J mouse assessed as spleen pathological morphological changes at 2 mg/kg administered for 7 days by hematoxylin-eosin staining based analysis; type: organism-based; conditions: in vivo, 168 h, time 7 day
# [27] = Toxicity in C57BL/6J mouse assessed as hepatic pathological changes by measuring hepatocytes distributed radially around the central veins at 2 mg/kg administered for 7 days by hematoxylin-eosin staining based analysis; type: organism-based; conditions: in vivo, 168 h, time 7 day
# [28] = Renal toxicity in C57BL/6J mouse assessed as blood urea level at 2 mg/kg administered for 7 days; type: organism-based; conditions: in vivo, 168 h, time 7 day
# [29] = biological target: T2, Alpha-mannosidase (Canavalia ensiformis) (UniProt C0HJB3); assay: Potency index, ratio of Miglitol Ki to test compound Ki for inhibition of jack bean alpha-mannosidase measured per DNJ unit
# T2 sequence (whole entry): T1 sequence (C0HJB3 whole entry)
# [30] = Renal toxicity in C57BL/6J mouse assessed as blood uric acid level at 2 mg/kg administered for 7 days; type: organism-based; conditions: in vivo, 168 h, time 7 day
# [31] = Toxicity in C57BL/6J mouse assessed as heart pathological morphological changes at 2 mg/kg administered for 7 days by hematoxylin-eosin staining based analysis; type: organism-based; conditions: in vivo, 168 h, time 7 day
# Mus musculus [32] = assay: Hypoglycemic activity in C57BL/6J mouse assessed as reduction in postprandial blood glucose level per DNJ unit at 0.5 to 1 mg/kg measured after 30 mins by maltose tolerance test relative to Miglitol; type: functional; conditions: dose 0.5-1 mg/kg
smiles,measurement,setting,value
OCCN1C[C@H](O)[C@@H](O)[C@H](O)[C@H]1CO [MIGLITOL],inhibition in vivo at 1 mg/kg,Mus musculus [1],27.3%
same,inhibition in vivo at 0.5 mg/kg,Mus musculus [2],22%
same,Ki,[3],20.8 µM
same,Ki,[4],180 nM
same,inhibition in vivo at 1 mg/kg,Mus musculus [5],30%
same,Activity,Mus musculus [6],233.28 mg/dL
same,Activity,Mus musculus [7],273.6 mg/dL
same,inhibition in vivo at 0.5 mg/kg,Mus musculus [8],23.1%
same,inhibition in vivo at 2 mg/kg,Mus musculus [9],39.2%
same,inhibition in vivo at 2 mg/kg,Mus musculus [10],41%
same,Activity,Mus musculus [11],287.55 mg/dL
O=C1c2cc(Oc3ccc(OCc4cn(CCCN5C[C@H](O)[C@@H](O)[C@H](O)[C@H]5CO)nn4)cc3)c3c4c(Oc5ccc(OCc6cn(CCCN7C[C@H](O)[C@@H](O)[C@H](O)[C@H]7CO)nn6)cc5)cc5c6c(cc(Oc7ccc(OCc8cn(CCCN9C[C@H](O)[C@@H](O)[C@H](O)[C@H]9CO)nn8)cc7)c(c7c(Oc8ccc(OCc9cn(CCCN%10C[C@H](O)[C@@H](O)[C@H](O)[C@H]%10CO)nn9)cc8)cc(c2c37)C(=O)N1Cc1cn(CCCN2C[C@H](O)[C@@H](O)[C@H](O)[C@H]2CO)nn1)c64)C(=O)N(Cc1cn(CCCN2C[C@H](O)[C@@H](O)[C@H](O)[C@H]2CO)nn1)C5=O,inhibition in vivo at 1 mg/kg,Mus musculus [1],34.6%
same,inhibition in vivo at 0.5 mg/kg,Mus musculus [2],24.4%
same,Activity,[12],Non-Toxic
same,Ki,[3],18.9 µM
same,Activity,[13],0.3 mmol/L
same,Ratio Ki,Oryza sativa,1.5
same,Activity,[14],Non-Toxic
same,Ki,[4],20 nM
same,Activity,[15],Non-Toxic
same,Activity,[16],59.14 U/L
same,fold change (FC),Mus musculus [17],2.1
same,inhibition in vivo at 1 mg/kg,Mus musculus [5],37%
same,viability at 125 µM,[18],92%
same,Activity,[19],Non-Toxic
same,Activity,[20],Non-Toxic
same,Ki,[21],140 nM
same,Activity,Mus musculus [6],229.32 mg/dL
same,Activity,Mus musculus [7],243.36 mg/dL
same,Activity,[22],Non-Toxic
same,Activity,[23],269.71 U/L
same,Activity,[24],Non-Toxic
same,Ki,Alpha-mannosidase,80 nM
same,inhibition in vivo at 0.5 mg/kg,Mus musculus [8],24.7%
same,Activity,[25],Non-Toxic
same,Activity,[26],Non-Toxic
same,inhibition in vivo at 2 mg/kg,Mus musculus [9],40.4%
same,Activity,[27],Non-Toxic
same,Activity,[28],8.63 mmol/L
same,Ratio Ki,[29],219
same,inhibition in vivo at 2 mg/kg,Mus musculus [10],37.8%
same,Activity,Mus musculus [11],279.6 mg/dL
same,Activity,[30],242.06 µmol/L
same,Activity,[31],Non-Toxic
same,fold change (FC),Mus musculus [32],2.1

# Source: ChEMBL document CHEMBL5108001, “Multivalent glucosidase inhibitors based on perylene bisimide and iminosugar conjugates” (Eur J Med Chem, 2022)
